Results from patent publication US3988450A, “Cephalosporins” (priority 1974, dated 1976).
Converted amounts (≈) assume the structure as drawn. Read-outs that look alike come from different tables or passages of the source.

Tests used:
[1] = Serum concentrations in mice after sub-cutaneous injection, microbiological assay; assay type: in vivo; details: mouse, sc, 50 mg/kg sub-cutaneous, average, read-out: Serum concentrations at time after dosing; for concentration at 0.5 h: 30 min; for concentration at 1 h: 60 min
Experimental: Each compound was injected sub-cutaneously into groups of mice at a dose of 50 mg/kg, and serum samples were taken at timed intervals thereafter and assayed microbiologically for their antibiotic content using the appropriate compound as standard.

[2] = general knowledge; cited from earlier work
E. coli JT1 = assay: MIC on nutrient agar; assay type: cell-based; details: Escherichia coli
Text: (§1) The minimum inhibitory concentrations of this compound required to inhibit the growth of various bacteria on nutrient agar are tabulated below: […]

Klebsiella aerogenes A = assay: MIC on nutrient agar; assay type: cell-based
Text: as §1

β-Haemolytic Strep. CN10 = assay: MIC on nutrient agar; assay type: cell-based
Text: as §1

P. mirabilis 889 = assay: MIC on nutrient agar; assay type: cell-based; details: Proteus mirabilis; P. mirabilis 889, nutrient agar
Text: as §1

B. subtilis = assay: MIC on nutrient agar; assay type: cell-based; details: Bacillus subtilis
Text: as §1

Proteus mirabilis C977 = assay: MIC on nutrient agar; assay type: cell-based
Text: as §1

Staph. aureus Oxford = assay: MIC on nutrient agar; assay type: cell-based; details: Staphylococcus aureus
Text: as §1

Shigella sonnei = assay: MIC on nutrient agar; assay type: cell-based
Text: as §1

Enterobacter cloacae N1 = assay: MIC on nutrient agar; assay type: cell-based
Text: as §1

Serratia marcescens US32 = assay: MIC on nutrient agar; assay type: cell-based
Text: as §1

Staph. aureus Russell = assay: MIC on nutrient agar; assay type: cell-based; details: Staphylococcus aureus
Salmonella typhi = assay: MIC on nutrient agar; assay type: cell-based; details: Salmonella enterica
Text: as §1

P. morganii = assay: MIC on nutrient agar; assay type: cell-based; details: Morganella morganii
Text: as §1

P. mirabilis 899 = assay: MIC on nutrient agar; assay type: cell-based; details: Proteus mirabilis; P. mirabilis 899, nutrient agar
[3] = E. coli JT1, nutrient agar, read-out: MIC

Row | Compound | MIC (E. coli JT1; [3]) | MIC (Klebsiella aerogenes A) | MIC (β-Haemolytic Strep. CN10) | MIC (B. subtilis) | MIC (Proteus mirabilis C977) | MIC (Staph. aureus Oxford) | MIC (Shigella sonnei) | MIC (Staph. aureus Russell) | MIC (Salmonella typhi) | also measured
1 | Cc1nnc(SCC2=C(C(=O)O)N3C(=O)[C@@H](NC(=O)Cn4cnnn4)[C@H]3SC2)s1 [Cefazolin, reference compound] |  |  |  |  |  |  |  |  |  | concentration at 10 min [1]: 45000 ng/mL; concentration at 20 min [1]: 37000 ng/mL; concentration at 0.5 h [1]: 21000 ng/mL; concentration at 1 h [1]: < 4000 ng/mL; concentration at 2 h [1]: < 4000 ng/mL; concentration at 4 h [1]: < 4000 ng/mL; duration of action (regarded as) [2]: relatively `long-acting` cephalosporin
2 | N[C@@H](C(=O)N[C@@H]1C(=O)N2C(C(=O)O)=C(Cc3ccccc3C(=O)O)CS[C@H]12)c1ccccc1 [LV, 3-(o-Carboxybenzyl)-7β-(D-α-phenylglycyl)aminoceph-3-em-4-carboxylic acid] | 12.5 µg/mL (≈ 26.7 µM) | 5 µg/mL (≈ 10.7 µM) | 5 µg/mL (≈ 10.7 µM) | 1.25 µg/mL (≈ 2.67 µM) | 5 µg/mL (≈ 10.7 µM) | 5 µg/mL (≈ 10.7 µM) |  |  |  | MIC (P. mirabilis 889): 5 µg/mL (≈ 10.7 µM)
3 | CN(N=Cc1ccccc1)C(=O)N[C@@H](C(=O)N[C@@H]1C(=O)N2C(C(=O)O)=C(Cc3ccccc3C(=O)O)CS[C@H]12)c1ccccc1 [LVIII, 3-(o-Carboxybenzyl)-7β-[D-α-(3-benzylideneimino-3-methylureido)-phenylacetamido]-ceph-3-em-4-carboxylic acid] | 8 µg/mL (≈ 12.7 µM) |  | 0.2 µg/mL (≈ 0.319 µM) |  |  | 8 µg/mL (≈ 12.7 µM) | 4 µg/mL (≈ 6.37 µM) |  |  | MIC (Enterobacter cloacae N1): 8 µg/mL (≈ 12.7 µM)
4 | CN(C(=O)C=Cc1ccccc1)C(=O)N[C@@H](C(=O)N[C@@H]1C(=O)N2C(C(=O)O)=C(Cc3ccccc3C(=O)O)CS[C@H]12)c1ccccc1 [LVIX, 3-(o-Carboxybenzyl)-7β-[D-α-(3-cinnamoul-3-methylureido)phenylacetamido]ceph-3-em-4-carboxylic acid] |  |  | 0.25 µg/mL (≈ 0.382 µM) |  |  | 4 µg/mL (≈ 6.11 µM) | 4 µg/mL (≈ 6.11 µM) |  |  | MIC (Serratia marcescens US32): 4 µg/mL (≈ 6.11 µM)
5 | N[C@@H](C(=O)N[C@@H]1C(=O)N2C(C(=O)O)=C(Cc3ccc(C(=O)O)cc3)CS[C@H]12)c1ccccc1.O=C(O)C(F)(F)F [XIII, 3-(p-Carboxybenzyl)-7β-(D-α-phenylglycyl)amino-ceph-3-em-4-carboxylic acid trifluoroacetic acid salt] | 12.5 µg/mL |  | 0.5 µg/mL | 1.25 µg/mL | 1.25 µg/mL | 0.5 µg/mL | 5 µg/mL | 2.5 µg/mL | 0.5 µg/mL | 
6 | CN(N=Cc1ccccc1)C(=O)N[C@@H](C(=O)N[C@@H]1C(=O)N2C(C(=O)O)=C(Cc3ccc(C(=O)O)cc3)CS[C@H]12)c1ccccc1 [XIX, 3-(p-Carboxybenzyl)-7β-[D-α-(3-benzylideneimino-3-methylureido)phenylacetamido]ceph-3-em-4-carboxylic acid] | 12.5 µg/mL (≈ 19.9 µM) | 5 µg/mL (≈ 7.97 µM) | 0.12 µg/mL (≈ 0.191 µM) |  | 5 µg/mL (≈ 7.97 µM) | 1.25 µg/mL (≈ 1.99 µM) | 2.5 µg/mL (≈ 3.98 µM) |  | 5 µg/mL (≈ 7.97 µM) | MIC (Serratia marcescens US32): 12.5 µg/mL (≈ 19.9 µM); MIC (P. morganii): 12.5 µg/mL (≈ 19.9 µM); MIC (Enterobacter cloacae N1): 5 µg/mL (≈ 7.97 µM)
7 | N[C@@H](C(=O)N[C@@H]1C(=O)N2C(C(=O)O)=C(Cc3cccc(C(=O)O)c3)CS[C@H]12)c1ccccc1 [XLI, 3-(m-Carboxybenzyl)-7β-(D-α-phenylglycyl)amino-ceph-3-em-4-carboxylic acid] | 12.5 µg/mL (≈ 26.7 µM) | 2.5 µg/mL (≈ 5.35 µM) | 0.12 µg/mL (≈ 0.257 µM) | 0.25 µg/mL (≈ 0.535 µM) | 2.5 µg/mL (≈ 5.35 µM) | 0.25 µg/mL (≈ 0.535 µM) |  | 1.25 µg/mL (≈ 2.67 µM) | 2.5 µg/mL (≈ 5.35 µM) | 
8 | O=C(O)C1=C(Cc2cccc(C(=O)O)c2)CS[C@@H]2[C@H](NC(=O)[C@H](O)c3ccccc3)C(=O)N12 [XLIII] |  |  | 2 µg/mL (≈ 4.27 µM) | 0.5 µg/mL (≈ 1.07 µM) | 8 µg/mL (≈ 17.1 µM) | 0.5 µg/mL (≈ 1.07 µM) |  |  | 8 µg/mL (≈ 17.1 µM) | 
9 | N[C@@H](C(=O)N[C@@H]1C(=O)N2C(C(=O)O)=C(Cc3ccc(C(=O)O)cc3)CS[C@H]12)c1ccc(O)cc1.O=C(O)C(F)(F)F [XVII, 3-(p-carboxybenzyl)-7β-(D-α-p-hydroxyphenylglycyl)aminoceph-3-em-4-carboxylic acid trifluoroacetic acid salt] |  |  | 0.5 µg/mL | 5 µg/mL | 2.5 µg/mL | 2.5 µg/mL |  | 5 µg/mL | 5 µg/mL | 
10 | O=C(O)C1=C(Cc2ccc(C(=O)O)cc2)CS[C@@H]2[C@H](NC(=O)[C@H](O)c3ccccc3)C(=O)N12 [XV] | 5 µg/mL (≈ 10.7 µM) |  | 0.25 µg/mL (≈ 0.534 µM) | 0.5 µg/mL (≈ 1.07 µM) | 0.5 µg/mL (≈ 1.07 µM) | 0.25 µg/mL (≈ 0.534 µM) |  |  | 5 µg/mL (≈ 10.7 µM) | 
11 | CN(C(=O)C=Cc1ccccc1)C(=O)N[C@@H](C(=O)N[C@@H]1C(=O)N2C(C(=O)O)=C(Cc3ccc(C(=O)O)cc3)CS[C@H]12)c1ccccc1 [XXI, 3-(p-Carboxybenzyl)-7β-[D-α-(3-cinnamoyl-3-methylureido)phenylacetamido]ceph-3-em-4-carboxylic acid] |  | 5 µg/mL (≈ 7.64 µM) | 0.12 µg/mL (≈ 0.183 µM) |  | 5 µg/mL (≈ 7.64 µM) | 2.5 µg/mL (≈ 3.82 µM) | 5 µg/mL (≈ 7.64 µM) |  | 12.5 µg/mL (≈ 19.1 µM) | MIC (Serratia marcescens US32): 5 µg/mL (≈ 7.64 µM); MIC (E. coli JT1; JT1): 12.5 µg/mL (≈ 19.1 µM); MIC (Enterobacter cloacae N1): 5 µg/mL (≈ 7.64 µM)
12 | NC(=O)N[C@H](Cc1c[nH]c2ccccc12)C(=O)N[C@@H](C(=O)N[C@@H]1C(=O)N2C(C(=O)O)=C(Cc3ccc(C(=O)O)cc3)CS[C@H]12)c1ccccc1 [XXVI] | 5 µg/mL (≈ 7.18 µM) | 5 µg/mL (≈ 7.18 µM) |  |  | 12.5 µg/mL (≈ 17.9 µM) | 0.5 µg/mL (≈ 0.718 µM) | 5 µg/mL (≈ 7.18 µM) | 5 µg/mL (≈ 7.18 µM) | 5 µg/mL (≈ 7.18 µM) | 
13 | O=C(Cc1cccs1)N[C@@H]1C(=O)N2C(C(=O)O)=C(Cc3ccc(C(=O)O)cc3)CS[C@H]12 [XXX, 7β-(2-Thienylacetamido)-3-(p-carboxybenzyl)ceph-3-em-4-carboxylic acid] |  |  | 0.5 µg/mL (≈ 1.09 µM) | 1.2 µg/mL (≈ 2.62 µM) | 5 µg/mL (≈ 10.9 µM) | 0.1 µg/mL (≈ 0.218 µM) |  | 5 µg/mL (≈ 10.9 µM) | 5 µg/mL (≈ 10.9 µM) | MIC (P. mirabilis 899): 2.5 µg/mL (≈ 5.45 µM)
14 | N[C@@H](C(=O)N[C@@H]1C(=O)N2C(C(=O)O)=C(Cc3cccc(C(=O)O)c3)CS[C@H]12)c1ccccc1 [m-carboxy isomer, 3-(m-Carboxybenzyl)-7β-(D-α-phenylglycyl)amino-ceph-3-em-4-carboxylic acid] |  |  |  |  |  |  |  |  |  | concentration at 10 min [1]: 84000 ng/mL; concentration at 20 min [1]: 64000 ng/mL; concentration at 0.5 h [1]: 50000 ng/mL; concentration at 1 h [1]: 26000 ng/mL; concentration at 2 h [1]: 14000 ng/mL; concentration at 4 h [1]: 1600 ng/mL
15 | N[C@@H](C(=O)N[C@@H]1C(=O)N2C(C(=O)O)=C(Cc3ccccc3C(=O)O)CS[C@H]12)c1ccccc1 [o-carboxy isomer, 3-(o-Carboxybenzyl)-7β-(D-α-phenylglycyl)aminoceph-3-em-4-carboxylic acid] |  |  |  |  |  |  |  |  |  | concentration at 10 min [1]: 63000 ng/mL; concentration at 20 min [1]: 66000 ng/mL; concentration at 0.5 h [1]: 58000 ng/mL; concentration at 1 h [1]: 49000 ng/mL; concentration at 2 h [1]: 41000 ng/mL; concentration at 4 h [1]: 31000 ng/mL
16 | N[C@@H](C(=O)N[C@@H]1C(=O)N2C(C(=O)O)=C(Cc3ccc(C(=O)O)cc3)CS[C@H]12)c1ccccc1 [p-carboxy isomer, 3-(p-Carboxybenzyl)-7β-(D-α-phenylglycyl)amino-ceph-3-em-4-carboxylic acid] |  |  |  |  |  |  |  |  |  | concentration at 10 min [1]: 75000 ng/mL; concentration at 20 min [1]: 87000 ng/mL; concentration at 0.5 h [1]: 69000 ng/mL; concentration at 1 h [1]: 48000 ng/mL; concentration at 2 h [1]: 22000 ng/mL; concentration at 4 h [1]: 9300 ng/mL
